Reference: ChEMBL document CHEMBL3885861, “Open TG-GATES”

Organism: Rattus norvegicus
Assay: Open TG-GATES - Regimen: Single
Type: toxicity, organism-based, Sprague-Dawley
Design: regimen Single, gender Male, age 6 weeks
Settings: in vivo, po, 150 mg/kg, route gavage, dose level Middle; for APTT / Bas / Eos / Fbg / Hb / Ht / Lym / MCH / MCHC / MCV / Mono / Neu / PT / Plat / RBC / Ret / WBC: tissue Blood; for KIDNEY_L / KIDNEY_R / KIDNEY_TOTAL: tissue Kidney; for LIVER: tissue Liver; for A/G / ALP / ALT / AST / BUN / CRE / Ca / Cl / DBIL / GLC / IP / K / LDH / Na / PL / RALB / TBIL / TC / TG / TP / gamma-GTP: tissue Plasma

## CCC1(c2ccccc2)C(=O)NC(=O)NC1=O [PHENOBARBITAL]
3 h
  TERMINAL_BW: 224.5 g
  APTT: 19.1 s
  Bas: 0.4%
  Eos: 1%
  Fbg: 217.2 mg/dL
  Hb: 13.8 g/dL
  Ht: 38.5%
  Lym: 82.4%
  MCH: 21.6 pg
  MCHC: 35.8%
  MCV: 60.4 fL
  Mono: 3%
  Neu: 12.6%
  PT: 12 s
  Plat: 129.5 x10_4/uL
  RBC: 637.8 x10_4/ul
  Ret: 7.8%
  WBC: 81.1 x10_2/uL
  KIDNEY_L: 1 g
  KIDNEY_R: 1 g
  KIDNEY_TOTAL: 2 g
  LIVER: 10.3 g
  A/G: 1.7
  ALP: 765.6 IU/L
  ALT: 39 IU/L
  AST: 66.4 IU/L
  BUN: 8.8 mg/dL
  CRE: 0.3 mg/dL
  Ca: 10.7 mg/dL
  Cl: 101.2 meq/L
  DBIL: 0.064 mg/dL
  GLC: 184.4 mg/dL
  IP: 9.8 mg/dL
  K: 4.4 meq/L
  LDH: 149.4 IU/L
  Na: 139.8 meq/L
  PL: 145.4 mg/dL
  RALB: 3.3 g/dL
  TBIL: 0.1 mg/dL
  TC: 71.4 mg/dL
  TG: 73.2 mg/dL
  TP: 5.3 g/dL
  gamma-GTP: 1 IU/L
6 h
  TERMINAL_BW: 221.3 g
  APTT: 20.4 s
  Bas: 0.2%
  Eos: 0.6%
  Fbg: 226 mg/dL
  Hb: 13.8 g/dL
  Ht: 38.1%
  Lym: 79%
  MCH: 21.5 pg
  MCHC: 36.3%
  MCV: 59.3 fL
  Mono: 3%
  Neu: 15.4%
  PT: 12 s
  Plat: 125.8 x10_4/uL
  RBC: 643 x10_4/ul
  Ret: 7.6%
  WBC: 90 x10_2/uL
  KIDNEY_L: 1 g
  KIDNEY_R: 1 g
  KIDNEY_TOTAL: 2 g
  LIVER: 9.3 g
  A/G: 1.5
  ALP: 756.8 IU/L
  ALT: 28.4 IU/L
  AST: 60.8 IU/L
  BUN: 8.2 mg/dL
  CRE: 0.4 mg/dL
  Ca: 10.7 mg/dL
  Cl: 100.6 meq/L
  DBIL: 0.07 mg/dL
  GLC: 178.2 mg/dL
  IP: 9.7 mg/dL
  K: 4.2 meq/L
  LDH: 178.4 IU/L
  Na: 139.6 meq/L
  PL: 137 mg/dL
  RALB: 3.2 g/dL
  TBIL: 0.1 mg/dL
  TC: 69.2 mg/dL
  TG: 67.6 mg/dL
  TP: 5.3 g/dL
  gamma-GTP: 1.2 IU/L
9 h
  TERMINAL_BW: 219.3 g
  APTT: 20.6 s
  Bas: 0%
  Eos: 0.4%
  Fbg: 215 mg/dL
  Hb: 14.1 g/dL
  Ht: 38.6%
  Lym: 76.6%
  MCH: 22.1 pg
  MCHC: 36.5%
  MCV: 60.5 fL
  Mono: 3%
  Neu: 19%
  PT: 12.2 s
  Plat: 121.6 x10_4/uL
  RBC: 637.8 x10_4/ul
  Ret: 7.7%
  WBC: 96.4 x10_2/uL
  KIDNEY_L: 1 g
  KIDNEY_R: 1 g
  KIDNEY_TOTAL: 2 g
  LIVER: 9.3 g
  A/G: 1.7
  ALP: 593.2 IU/L
  ALT: 26.6 IU/L
  AST: 58.6 IU/L
  BUN: 6.8 mg/dL
  CRE: 0.3 mg/dL
  Ca: 10.4 mg/dL
  Cl: 100 meq/L
  DBIL: 0.066 mg/dL
  GLC: 182 mg/dL
  IP: 9.5 mg/dL
  K: 4.1 meq/L
  LDH: 136 IU/L
  Na: 139.8 meq/L
  PL: 138.8 mg/dL
  RALB: 3.3 g/dL
  TBIL: 0.1 mg/dL
  TC: 70 mg/dL
  TG: 39 mg/dL
  TP: 5.2 g/dL
  gamma-GTP: 1 IU/L
24 h
  TERMINAL_BW: 234 g
  APTT: 19.2 s
  Bas: 0.8%
  Eos: 1%
  Fbg: 214.2 mg/dL
  Hb: 13.9 g/dL
  Ht: 38.4%
  Lym: 79.6%
  MCH: 21.8 pg
  MCHC: 36.2%
  MCV: 60.3 fL
  Mono: 2.2%
  Neu: 16%
  PT: 11.7 s
  Plat: 125.7 x10_4/uL
  RBC: 637 x10_4/ul
  Ret: 6.5%
  WBC: 106.3 x10_2/uL
  KIDNEY_L: 1.1 g
  KIDNEY_R: 1 g
  KIDNEY_TOTAL: 2.1 g
  LIVER: 11.5 g
  A/G: 1.6
  ALP: 882.2 IU/L
  ALT: 33.8 IU/L
  AST: 75.6 IU/L
  BUN: 16 mg/dL
  CRE: 0.4 mg/dL
  Ca: 10.8 mg/dL
  Cl: 102 meq/L
  DBIL: 0.058 mg/dL
  GLC: 180.6 mg/dL
  IP: 7.6 mg/dL
  K: 4.2 meq/L
  LDH: 264.4 IU/L
  Na: 142.4 meq/L
  PL: 142.2 mg/dL
  RALB: 3.5 g/dL
  TBIL: 0.1 mg/dL
  TC: 72 mg/dL
  TG: 113.2 mg/dL
  TP: 5.7 g/dL
  gamma-GTP: 1.2 IU/L
